Target: T1, PI3Kα H1047R (T47D cells) (Homo sapiens, UniProt P42336, H1047R)
T1 construct: endogenous in cells; host or cells: T47D cells
Assay: PI3Kα cellular assay: pAKT HTRF in T47D cells after EGF stimulation
Type: cell-based
Settings: for IC50: T47D cells (PI3Kα H1047R), pAKT S473 HTRF, EGF stimulation
In short: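 pAKT read by HTRF in lysates of EGF-stimulated (20 ng/mL, 10 min) T47D H1047R cells. Before stimulation, serum-starved cells (16 h) received compound for 1 h at 37 °C, dosed from 10,000 nM down to 0.5 nM in 3-fold steps.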

T1 sequence (P42336 whole entry H1047R): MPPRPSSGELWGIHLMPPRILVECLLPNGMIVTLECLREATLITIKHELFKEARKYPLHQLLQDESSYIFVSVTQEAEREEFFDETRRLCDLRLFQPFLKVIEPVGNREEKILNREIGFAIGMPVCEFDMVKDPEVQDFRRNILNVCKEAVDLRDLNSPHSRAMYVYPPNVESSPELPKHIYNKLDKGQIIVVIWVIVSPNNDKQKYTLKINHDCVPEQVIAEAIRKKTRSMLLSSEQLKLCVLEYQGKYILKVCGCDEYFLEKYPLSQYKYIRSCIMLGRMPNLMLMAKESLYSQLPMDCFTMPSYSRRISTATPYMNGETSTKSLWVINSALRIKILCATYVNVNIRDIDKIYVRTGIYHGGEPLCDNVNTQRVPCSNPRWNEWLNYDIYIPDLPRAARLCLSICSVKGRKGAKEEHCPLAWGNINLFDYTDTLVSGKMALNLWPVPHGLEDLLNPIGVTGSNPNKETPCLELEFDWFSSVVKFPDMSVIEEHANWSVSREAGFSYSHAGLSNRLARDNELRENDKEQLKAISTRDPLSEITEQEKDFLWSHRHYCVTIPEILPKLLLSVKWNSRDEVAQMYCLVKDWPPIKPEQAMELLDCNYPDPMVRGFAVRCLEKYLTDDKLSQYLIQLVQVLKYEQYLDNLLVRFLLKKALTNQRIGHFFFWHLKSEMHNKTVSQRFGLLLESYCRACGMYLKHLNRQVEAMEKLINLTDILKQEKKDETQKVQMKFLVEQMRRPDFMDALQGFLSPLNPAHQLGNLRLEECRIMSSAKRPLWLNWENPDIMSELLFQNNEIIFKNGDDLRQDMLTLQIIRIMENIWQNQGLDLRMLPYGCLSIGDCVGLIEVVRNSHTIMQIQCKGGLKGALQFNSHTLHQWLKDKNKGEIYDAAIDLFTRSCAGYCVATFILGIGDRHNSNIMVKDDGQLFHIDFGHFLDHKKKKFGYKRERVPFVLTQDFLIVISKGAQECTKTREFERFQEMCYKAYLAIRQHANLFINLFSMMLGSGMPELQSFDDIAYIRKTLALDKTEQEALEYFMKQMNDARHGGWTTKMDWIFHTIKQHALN
T1 sequence (P27986 whole entry partner): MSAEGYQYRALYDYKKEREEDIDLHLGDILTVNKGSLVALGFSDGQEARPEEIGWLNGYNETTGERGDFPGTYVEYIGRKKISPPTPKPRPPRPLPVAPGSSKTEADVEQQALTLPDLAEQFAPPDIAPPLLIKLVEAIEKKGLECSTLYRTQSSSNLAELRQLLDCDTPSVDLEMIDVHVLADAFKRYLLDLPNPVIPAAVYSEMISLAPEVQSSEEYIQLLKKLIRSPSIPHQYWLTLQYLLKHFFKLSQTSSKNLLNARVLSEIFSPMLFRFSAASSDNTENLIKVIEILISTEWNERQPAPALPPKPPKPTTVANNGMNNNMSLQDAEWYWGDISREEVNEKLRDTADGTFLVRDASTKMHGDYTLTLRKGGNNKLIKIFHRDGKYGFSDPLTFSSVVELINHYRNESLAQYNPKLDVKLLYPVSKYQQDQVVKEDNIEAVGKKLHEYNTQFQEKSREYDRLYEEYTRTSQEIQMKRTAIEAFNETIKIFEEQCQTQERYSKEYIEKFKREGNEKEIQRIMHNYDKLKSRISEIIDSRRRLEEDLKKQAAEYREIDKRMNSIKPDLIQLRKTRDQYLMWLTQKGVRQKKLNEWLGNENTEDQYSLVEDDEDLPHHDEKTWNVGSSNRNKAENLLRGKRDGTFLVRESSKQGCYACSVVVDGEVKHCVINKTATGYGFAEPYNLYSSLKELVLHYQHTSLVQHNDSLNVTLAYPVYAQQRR

SMILES | IC50 | T47D pAKT S473 HTRF IC50 (H1047R): T47D (H1047R) selectivity over SKBR3 (WT)
Cc1cc(C(C)Nc2ccccc2S(N)(=O)=O)c2nc(-c3ccc(C4CNC4)nc3)c(C)c(=O)n2c1.O=C(O)C(F)(F)F (stereo not drawn) [Compound 1305] | > 2000 nM | C (C denotes ≤5-fold)
Cc1cc([C@H](C)Nc2ccccc2C(=O)O)c2nc(-c3ccc(CNc4[nH]cc(C)c4C#N)c(C)c3)c(C)c(=O)n2c1 [Compound 1307] | – | B (B denotes 20-fold≥value>5-fold)
Cc1cc(C(C)Nc2ccccc2C(=O)O)c2nc(C3CCN(CC(F)F)CC3)cc(=O)n2c1 (stereo not drawn) [Compound 1308] | 100 to 500 nM | A (A denotes >20-fold)
Cc1cc([C@@H](C)Nc2ccccc2S(N)(=O)=O)c2nc([C@@H]3CCCN(CC(F)F)C3)c(C)c(=O)n2c1 [Compound 1309] | 500 to 2000 nM | B (B denotes 20-fold≥value>5-fold)
Cc1cc([C@@H](C)Nc2ccccc2S(N)(=O)=O)c2nc([C@H]3CCCN(CC(F)F)C3)c(C)c(=O)n2c1 [Compound 1310] | > 2000 nM | C (C denotes ≤5-fold)
Cc1cc([C@H](C)Nc2ccccc2S(N)(=O)=O)c2nc([C@@H]3CCCN(CC(F)F)C3)c(C)c(=O)n2c1 [Compound 1311] | > 2000 nM | C (C denotes ≤5-fold)
Cc1cc([C@H](C)Nc2ccccc2S(N)(=O)=O)c2nc([C@H]3CCCN(CC(F)F)C3)c(C)c(=O)n2c1 [Compound 1312] | < 100 nM | A (A denotes >20-fold)
Cc1cc(C(C)Nc2ccccc2C(=O)O)c2nc(-c3ccc(CC4CCN(C(=O)C5CC5)CC4)c(F)c3)c(C)c(=O)n2c1 (stereo not drawn) [Compound 1313] | 100 to 500 nM | A (A denotes >20-fold)
Cc1cc([C@@H](C)Nc2ccccc2C(=O)O)c2nc(-c3ccc(CC4CCN(C(=O)C5CC5)CC4)c(F)c3)c(C)c(=O)n2c1 [Compound 1314] | 100 to 500 nM | A (A denotes >20-fold)
Cc1cc([C@H](C)Nc2ccccc2C(=O)O)c2nc(-c3ccc(CC4CCN(C(=O)C5CC5)CC4)c(F)c3)c(C)c(=O)n2c1 [Compound 1315] | – | C (C denotes ≤5-fold)
Cc1cc([C@@H](C)Nc2ccccc2C(=O)O)c2nc(-c3ccc(C4CCC(C(=O)C5CC5)CC4)c(F)c3)c(C)c(=O)n2c1 (stereo partly drawn) [Compound 1318] | – | C (C denotes ≤5-fold)
Cc1cccc(-c2nc3c([C@H](C)Nc4ccccc4S(C)(=O)=O)cc(C)cn3c(=O)c2C)c1 [Compound 1320] | – | B (B denotes 20-fold≥value>5-fold)
Cc1cccc(-c2nc3c(C(C)Nc4ccccc4C(=O)CS(=O)(=O)N(C)C)cc(C)cn3c(=O)c2C)c1 (stereo not drawn) [Compound 1321] | – | B (B denotes 20-fold≥value>5-fold)
Cc1cc(C(C)Nc2ccccc2C(=O)O)c2nc(C3=CCC(C4CN(C)C4)C=C3)c(C)c(=O)n2c1 (stereo not drawn) [Compound 1322] | – | C (C denotes ≤5-fold)
Cc1cc([C@@H](C)Nc2ccccc2S(N)(=O)=O)c2nc(N3Cc4cccnc4C3)c(C)c(=O)n2c1 [Compound 1323] | < 100 nM | A (A denotes >20-fold)
Cc1cc([C@H](C)Nc2ccccc2S(N)(=O)=O)c2nc(N3Cc4cccnc4C3)c(C)c(=O)n2c1 [Compound 1324] | – | A (A denotes >20-fold)
CCc1ccn2c(=O)c(C)c(-c3cccc(F)c3)nc2c1[C@@H](C)Nc1ccccc1C(=O)O [Compound 1325] | – | C (C denotes ≤5-fold)

The remaining lines, values ahead:

IC50 | T47D pAKT S473 HTRF IC50 (H1047R): T47D (H1047R) selectivity over SKBR3 (WT) | SMILES
< 100 nM | A (A denotes >20-fold) | CCc1ccn2c(=O)c(C)c(-c3cccc(F)c3)nc2c1[C@H](C)Nc1ccccc1C(=O)O [Compound 1326]
– | B (B denotes 20-fold≥value>5-fold) | Cc1cc([C@H](C)Nc2ccccc2S(=O)(=O)O)c2nc(-c3cccc(C4CC4)c3)cc(=O)n2c1 [Compound 1327]
– | A (A denotes >20-fold) | Cc1cc([C@@H](C)Nc2ccccc2C(=O)O)c2nc([C@H]3CCCC(CC(F)F)C3)c(C)c(=O)n2c1 (stereo partly drawn) [Compound 1329]
– | C (C denotes ≤5-fold) | Cc1cc([C@H](C)Nc2ccccc2C(=O)O)c2nc([C@H]3CCCC(CC(F)F)C3)c(C)c(=O)n2c1 (stereo partly drawn) [Compound 1331]
– | B (B denotes 20-fold≥value>5-fold) | CC(=O)N1CCC(Cc2ccc(-c3nc4c([C@H](C)Nc5ccccc5C(=O)O)cc(C)cn4c(=O)c3C)cc2F)CC1 [Compound 1334]
– | C (C denotes ≤5-fold) | Cc1cc(C(C)Nc2ccccc2C(=O)O)c2nc(-c3cnc(C4CCN(C(=O)C5CC5)CC4)nc3)c(C)c(=O)n2c1 (stereo not drawn) [Compound 1336]
– | C (C denotes ≤5-fold) | Cc1cc(C(C)Oc2ccccc2C(=O)O)c2nc(-c3cccc(F)c3)c(C)c(=O)n2c1 (stereo not drawn) [Compound 1337]
– | C (C denotes ≤5-fold) | Cc1cc([C@@H](C)Nc2ccccc2C(=O)O)c2nc(-c3ccc(C4CCCC(C)C4)cc3)c(C)c(=O)n2c1 (stereo partly drawn) [Compound 1338]
– | B (B denotes 20-fold≥value>5-fold) | Cc1cc([C@H](C)Nc2ccccc2C(=O)O)c2nc(-c3ccc(C4CCC(C)CC4)cc3)cc(=O)n2c1 (stereo partly drawn) [Compound 1341]
– | C (C denotes ≤5-fold) | Cc1cc([C@@H](C)Nc2ccccc2C(=O)O)c2nc(-c3ccc(C4CN(C)C4)nc3)c(C)c(=O)n2c1 [Compound 1342]
– | C (C denotes ≤5-fold) | Cc1cc([C@H](C)Nc2ccccc2C(=O)O)c2nc(-c3ccc(C4CN(C)C4)nc3)c(C)c(=O)n2c1 [Compound 1343]
– | B (B denotes 20-fold≥value>5-fold) | Cc1cc([C@@H](C)Nc2ccccc2S(N)(=O)=O)c2nc(-c3ccc(C4CCNCC4)nc3)c(C)c(=O)n2c1 [Compound 1344]
– | C (C denotes ≤5-fold) | Cc1cc([C@H](C)Nc2ccccc2S(N)(=O)=O)c2nc(-c3ccc(C4CCNCC4)nc3)c(C)c(=O)n2c1 [Compound 1345]
– | C (C denotes ≤5-fold) | Cc1cc([C@@H](C)Nc2ccccc2C(=O)NS(=O)(=O)N(C)C)c2nc(-c3cccc(F)c3)c(C)c(=O)n2c1 [Compound 1346]
– | B (B denotes 20-fold≥value>5-fold) | Cc1cc([C@H](C)Nc2ccccc2C(=O)NS(=O)(=O)N(C)C)c2nc(-c3cccc(F)c3)c(C)c(=O)n2c1 [Compound 1347]
< 100 nM | A (A denotes >20-fold) | Cc1cn2c(=O)c(C)c(-c3cccc(F)c3)nc2c(C(C)Nc2ccccc2C(=O)O)c1C (stereo not drawn) [Compound 1348]
– | C (C denotes ≤5-fold) | Cc1cc([C@H](C)Nc2ccccc2C(=O)NS(C)(=O)=O)c2cc(-c3cccc(F)c3)c(C)c(=O)n2c1 [Compound 1351]

— patent US20260132129A1 (Genesis Therapeutics, Inc., priority 2022, published 2026)
